Source: patent US11306064B2, “Benzothia(di)azepine compounds and their use as bile acid modulators” (Albireo AB, priority 2018, dated 2022)

Tests used:
Human LBAT = target: T1, Human LBAT (Homo sapiens, UniProt Q14973); assay: LBAT (h/m) assay: 3H-taurocholic acid uptake in human LBAT-overexpressing cells; type: cell-based; details: 0.3 μM 3H-taurocholic acid and 7.5 μM cold taurocholic acid, 20 minutes, read-out: hLBAT IC50
T1 construct: expressed in transfected cells; kept under Geneticin selection
T1 sequence (Q14973 1-349): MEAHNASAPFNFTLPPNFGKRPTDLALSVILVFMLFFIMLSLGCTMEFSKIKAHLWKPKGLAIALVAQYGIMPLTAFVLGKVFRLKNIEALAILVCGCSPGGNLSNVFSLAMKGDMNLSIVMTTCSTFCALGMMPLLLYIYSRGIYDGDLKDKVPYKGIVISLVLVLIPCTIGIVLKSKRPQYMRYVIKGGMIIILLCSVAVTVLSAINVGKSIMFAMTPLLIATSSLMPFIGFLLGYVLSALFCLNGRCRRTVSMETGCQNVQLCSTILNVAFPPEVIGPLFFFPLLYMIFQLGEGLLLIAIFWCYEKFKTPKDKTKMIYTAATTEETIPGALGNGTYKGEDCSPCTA
Method: LBAT (h/m) Assay Protocol
20,000 cells (Human or Mouse LBAT-overexpressing cells) were seeded in 96-wells plate (Corning CLS3809) in 100 μL MEM-alpha medium (Gibco 12571-063) supplemented with 10% FBS (Gibco 10438026) containing Geneticin (Gibco 10131-027) (1 mg/mL) and incubated at 37° C. in 5% CO2 for 24 hours. After incubation, media was decanted from the wells and cells were washed two times with 300 μL of basal MEM-alpha medium (FBS-free). After decanting basal MEM-alpha medium each time, plates were tapped against paper towel to ensure maximum removal of residual media. For human LBAT, incubation mix was prepared by adding test inhibitor dilutions (3-fold serial dilution in DMSO (Sigma D2650), 10 points) in MEM-alpha (without FBS) containing 0.3 μM 3H-taurocholic acid (ARC ART-1368) and 7.5 μM cold taurocholic acid (Sigma T4009) (maintaining 0.2% final DMSO concentration). For mouse LBAT, incubation mix was prepared by adding test inhibitor dilutions (3-fold serial dilution in DMSO, 10 points) in MEM-alpha (without FBS) containing 0.3 μM 3H-taurocholic acid and 25 μM cold taurocholic acid maintaining 0.2% final DMSO concentration).
50 μL of incubation mix containing test inhibitors was then added to the wells (in duplicate) and the plates were incubated for 20 minutes in a CO2 incubator at 37° C. After incubation, the reaction was stopped by keeping the plates on ice water mix for 2-3 minutes and then the incubation mix was aspirated completely from the wells. The wells were washed two times with 250 μL of chilled unlabelled 1 mM taurocholic acid dissolved in HEPES (Gibco 15630080)-buffered (10 mM) HBSS (Gibco 14175079) (pH 7.4). The plates were tapped against a paper towel after every wash to ensure maximum removal of blocking buffer.
100 μL of MicroScint-20 (PerkinElmer 6013621) was added to the wells and kept overnight at room temperature before reading the plates in TopCount NXT™ Microplate Scintillation and Luminescence Counter from PerkinElmer under 3H Test protocol (set at 120 seconds reading time per well, with normal plate orientation).
(§1) Preparation of Test Compound Dilutions
(§2) All test compounds were provided in powder form at room temperature. 10 mM DMSO stocks of the test compounds were prepared, aliquoted and stored at −20° C. From the 10 mM DMSO stock of the compounds, a 3-fold serial dilution in DMSO was prepared to get a total of 10 dilutions of the test compounds. 0.5 μL of this dilution in DMSO was added to 250 μL of FBS-free basal media containing 3H-taurocholic acid and cold taurocholic acid to prepare the incubation mixture.

Human ASBT = target: T2, Human ASBT (Homo sapiens, UniProt Q12908); assay: ASBT (h/m) assay: 3H-taurocholic acid uptake in human ASBT-overexpressing cells; type: cell-based; details: 0.25 μM 3H-taurocholic acid and 5 μM cold taurocholic acid, 20 minutes, read-out: hASBT IC50
T2 construct: expressed in transfected cells; kept under Puromycin selection
T2 sequence (Q12908 1-348): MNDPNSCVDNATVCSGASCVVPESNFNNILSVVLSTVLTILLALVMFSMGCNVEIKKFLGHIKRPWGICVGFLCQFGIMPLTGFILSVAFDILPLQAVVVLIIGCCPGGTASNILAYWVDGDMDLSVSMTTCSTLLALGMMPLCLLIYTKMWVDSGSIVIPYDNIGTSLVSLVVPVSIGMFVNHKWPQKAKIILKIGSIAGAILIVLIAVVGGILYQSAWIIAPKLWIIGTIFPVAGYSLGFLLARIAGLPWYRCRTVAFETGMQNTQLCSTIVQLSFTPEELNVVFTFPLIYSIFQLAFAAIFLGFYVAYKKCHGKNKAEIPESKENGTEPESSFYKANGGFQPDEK
Method: ASBT (h/m) Assay Protocol
10,000 cells (Human or Mouse ASBT-overexpressing cells) were seeded in 96-wells plate (Corning CLS3809) in 200 μL MEM-alpha medium (Gibco 12571-063) supplemented with 10% FBS (Gibco 10438026) containing Puromycin (Gibco A1113803) (10 μg/mL) and incubated at 37° C. in 5% CO2 for 48 hours. After incubation, media was decanted from the wells and cells were washed two times with 300 μL of basal MEM-alpha medium (FBS-free). After decanting basal MEM-alpha medium each time, plates were tapped against paper towel to ensure maximum removal of residual media. Test inhibitor dilutions (highest test concentration being 10 μM, 3-fold serial dilution, 10 points) prepared in DMSO (Sigma D2650) were added in incubation mix (maintaining 0.2% final DMSO concentration) containing 0.25 μM 3H-taurocholic acid (ARC ART-1368) and 5 μM of cold taurocholic acid (Sigma T4009). 50 μL of incubation mix containing test inhibitors was then added to the wells (in duplicate) and the plates were incubated for 20 minutes in a CO2 incubator at 37° C. After incubation, the reaction was stopped by keeping the plates on ice water mix for 2-3 minutes and then the incubation mix was aspirated completely from the wells. The wells were washed two times with 250 μL of chilled unlabelled 1 mM taurocholic acid dissolved in HEPES (Gibco 15630080)-buffered (10 mM) HBSS (Gibco 14175079) (pH 7.4). The plates were tapped against a paper towel after every wash to ensure maximum removal of blocking buffer.
100 μL of MicroScint-20 (PerkinElmer 6013621) was added to the wells and kept overnight at room temperature before reading the plates in TopCount NXT™ Microplate Scintillation and Luminescence Counter from PerkinElmer under 3H Test protocol (set at 120 seconds reading time per well).
as §1, §2

| Structure (SMILES) | IC50 (Human LBAT) | IC50 (Human ASBT) |
| --- | --- | --- |
| CCCCC1(CCCC)CN(c2ccccc2)c2cc(SC)c(O/C=C/C(=O)O)cc2S(=O)(=O)C1 [Example 1, (E)-3-((3,3-dibutyl-7-(methylthio)-1,1-dioxido-5-phenyl-2,3,4,5-tetrahydro-1,5-benzothiazepin-8-yl)oxy)acrylic acid] | 145 nM | 70 nM |
| CCCCC1(CCCC)CN(c2ccccc2)c2cc(N(C)C)c(O/C=C/C(=O)O)cc2S(=O)(=O)C1 [Example 8, (E)-3-((3,3-dibutyl-7-(dimethylamino)-1,1-dioxido-5-phenyl-2,3,4,5-tetrahydro-1,5-benzothiazepin-8-yl)oxy)acrylic Acid] | 1470 nM | 40 nM |
| CCCCC1(CCCC)CN(c2ccc(O)cc2)c2cc(SC)c(O/C=C/C(=O)O)cc2S(=O)(=O)C1 [Example 20, (E)-3-((3,3-dibutyl-5-(4-hydroxyphenyl)-7-(methylthio)-1,1-dioxido-2,3,4,5-tetrahydro-1,5-benzothiazepin-8-yl)oxy)acrylic Acid] | 1300 nM | 20 nM |
| CCCCC1(CCCC)CN(c2ccccc2)c2cc(C#N)c(O/C=C/C(=O)O)cc2S(=O)(=O)C1 [Example 82, (E)-3-((3,3-dibutyl-7-cyano-1,1-dioxido-5-phenyl-2,3,4,5-tetrahydro-1,5-benzothiazepin-8-yl)oxy)acrylic Acid] | 270 nM | 873 nM |
| CCCCC1(CCCC)CN(c2ccccc2)c2cc(SC)c(O/C(C)=C/C(=O)O)cc2S(=O)(=O)N1 [Example 83, (E)-3-((3,3-dibutyl-7-(methylthio)-1,1-dioxido-5-phenyl-2,3,4,5-tetrahydro-1,2,5-benzothiadiazepin-8-yl)oxy)but-2-enoic Acid] | 4920 nM | 18 nM |
| CCCCC1(CCCC)CN(c2ccc(Br)cc2)c2cc(SC)c(O/C=C(\F)C(=O)O)cc2S(=O)(=O)C1 [Example 94, (Z)-3-((5-(4-bromophenyl)-3,3-dibutyl-7-(methylthio)-1,1-dioxido-2,3,4,5-tetrahydro-1,5-benzothiazepin-8-yl)oxy)-2-fluoroacrylic Acid] | 96 nM | 42 nM |

Further molecules by falling IC50 (Human LBAT), results first:

| IC50 (Human LBAT) | IC50 (Human ASBT) | Structure (SMILES) |
| --- | --- | --- |
| 828 nM | 7.5 nM | CCCCC1(CC)CN(c2ccccc2)c2cc(N(C)C)c(O/C=C/C(=O)O)cc2S(=O)(=O)C1 (stereo not drawn) [Example 80, (E)-3-((3-butyl-7-(dimethylamino)-3-ethyl-1,1-dioxido-5-phenyl-2,3,4,5-tetrahydro-1,5-benzothiazepin-8-yl)oxy)acrylic Acid] |
| 461 nM | 192 nM | CCCCC1(CCCC)CN(c2ccccc2)c2cc(SCC)c(O/C=C/C(=O)O)cc2S(=O)(=O)C1 [Example 67, (E)-3-((3,3-dibutyl-7-(ethylthio)-1,1-dioxido-5-phenyl-2,3,4,5-tetrahydro-1,5-benzothiazepin-8-yl)oxy)acrylic Acid] |
| 349 nM | 148 nM | CCCCC1(CCCC)CN(c2ccccc2)c2cc(Br)c(O/C=C/C(=O)O)cc2S(=O)(=O)N1 [Example 75, (E)-3-((7-bromo-3,3-dibutyl-1,1-dioxido-5-phenyl-2,3,4,5-tetrahydro-1,2,5-benzothiadiazepin-8-yl)oxy)acrylic Acid] |
| 341 nM | 9 nM | CCCCC1(CCCC)CN(c2ccccc2)c2cc(N(C)C)c(O/C=C(\F)C(=O)O)cc2S(=O)(=O)N1 [Example 97, (Z)-3-((3,3-dibutyl-7-(dimethylamino)-1,1-dioxido-5-phenyl-2,3,4,5-tetrahydro-1,2,5-benzothiadiazepin-8-yl)oxy)-2-fluoroacrylic Acid] |
| 298 nM | 3330 nM | CCCC[C@]1(CC)CN(c2ccccc2)c2cc(F)c(O/C=C/C(=O)O)cc2S(=O)(=O)C1 (single isomer, unassigned) [Example 102] |
| 290 nM | 3330 nM | CCCCC1(CCCC)CN(c2ccc(C(=O)N(C)C)cc2)c2cc(SC)c(O/C=C(\F)C(=O)O)cc2S(=O)(=O)C1 [Example 104, (Z)-3-((3,3-dibutyl-5-(4-(dimethylcarbamoyl)phenyl)-7-(methylthio)-1,1-dioxido-2,3,4,5-tetrahydro-1,5-benzothiazepin-8-yl)oxy)-2-fluoroacrylic Acid] |
| 210 nM | 771 nM | CCCCC1(CCCC)CN(c2ccccc2)c2cc(F)c(O/C=C/C(=O)O)cc2S(=O)(=O)C1 [Example 81, (E)-3-((3,3-dibutyl-7-fluoro-1,1-dioxido-5-phenyl-2,3,4,5-tetrahydro-1,5-benzothiazepin-8-yl)oxy)acrylic Acid] |
| 187 nM | 320 nM | CCCC[C@@]1(CC)CN(c2ccccc2)c2cc(F)c(O/C=C/C(=O)O)cc2S(=O)(=O)C1 (single isomer, unassigned) [Example 103] |
| 33 nM | 138 nM | CCCC[C@]1(CC)CN(c2ccccc2)c2cc(N(C)C)c(O/C=C(\F)C(=O)O)cc2S(=O)(=O)C1 (single isomer, unassigned) [Example 110] |
